Experimental data from patent US6914045B2, “Glycopeptide antibiotics” (Wyeth Holdings Corporation, priority 2001, dated 2005).
Converted amounts (≈) assume the structure as drawn.

How the values were obtained:
Assay in all cases: in vitro antibacterial evaluation, MIC by broth dilution
Assay type in all cases: cell-based
Enterococcus sp. = conditions: broth dilution, 18 hours at 35° C.
In short: (§1)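 Step 1: dilute antibiotic across 64-0.06 μg/mL in Muller-Hinton II […]. Step 2: inoculate at 5×10^5 CFU/mL.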

Streptococcus sp. = conditions: broth dilution, 18 hours at 35° C.
In short: as §1

Staphylococcus sp. = conditions: broth dilution, 18 hours at 35° C.; for MIC Staphylococcus aureus (ATCC 29213): strain ATCC 29213; for MIC Staphylococcus aureus (GC 1131): strain GC 1131; for MIC Staphylococcus aureus (GC 3051): strain GC 3051; for MIC Staphylococcus aureus (GC 3053): strain GC 3053; for MIC Staphylococcus aureus (GC 4541): strain GC 4541; for MIC Staphylococcus aureus (GC 4542): strain GC 4542; for MIC Staphylococcus aureus (GC 4544): strain GC 4544; for MIC Staphylococcus aureus (GC 4545): strain GC 4545
In short: as §1

Escherichia coli = conditions: 18 hours at 35° C.
In short: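 MIC is the lowest antibiotic concentration (tested 64-0.06 μg/mL) preventing growth of a 5×10^5 CFU/mL inoculum. Determined by broth dilution in Mueller-Hinton II medium following NCCLS standard M7-A2.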

[1] = Enterococcus faecalis (ATCC 29212)
[2] = Enterococcus faecalis (GC 4552)
[3] = Enterococcus faecalis (GC 4553)
[4] = Enterococcus faecalis (GC 4554)
[5] = Enterococcus faecalis (GC 6189)

## CC(c1ccccc1)C1NC(=O)CNC(=O)C(CO)NC(=O)C(C(O)C2CN(c3nc4ccccc4o3)C(=N)N2C2OC(CO)C(O)C(O)C2O)NC(=O)C(C(O)C2CNC(=Nc3nc4ccccc4o3)N2)NC(=O)C(Cc2ccc(OC3OC(CO)C(OC4OC(CO)C(O)C(O)C4O)C(O)C3O)cc2)NC1=O (stereo not drawn) [Example 93, Cyclo[glycyl-β-methylphenylalanyl-O-(4-O-hexopyranosylhexopyranosyl)tyrosyl-3-[2-(1,3-benzoxazol-2-ylimino)imidazolidin-4-yl]seryl-3-[1-(1,3-benzoxaxol-2-yl)-3-hexopyranosyl-2-iminoimidazolidin-4-yl]serylseryl]]
Enterococcus sp.; Enterococcus avium (GC 4558)
  MIC Enterococcus avium (GC 4558): 128 µg/mL (≈ 83.7 µM)
Enterococcus sp.; [1]
  MIC Enterococcus faecalis (ATCC 29212): >128 µg/mL
Enterococcus sp.; [2]
  MIC Enterococcus faecalis (GC 4552): >128 µg/mL
Enterococcus sp.; [3]
  MIC Enterococcus faecalis (GC 4553): >128 µg/mL
Enterococcus sp.; [4]
  MIC Enterococcus faecalis (GC 4554): >128 µg/mL
Enterococcus sp.; [5]
  MIC Enterococcus faecalis (GC 6189): >128 µg/mL
Enterococcus sp.; Enterococcus faecium (GC 2243)
  MIC Enterococcus faecium (GC 2243): >128 µg/mL
Enterococcus sp.; Enterococcus faecium (GC 4556)
  MIC Enterococcus faecium (GC 4556): >128 µg/mL
Enterococcus sp.; Enterococcus faecium (GC 4557)
  MIC Enterococcus faecium (GC 4557): 128 µg/mL (≈ 83.7 µM)
Enterococcus sp.
  MIC Enterococcus avium (GC 4558): 128 µg/mL (≈ 83.7 µM)
  MIC Enterococcus faecalis (ATCC 29212): >128 µg/mL
  MIC Enterococcus faecalis (GC 2242): >128 µg/mL
  MIC Enterococcus faecalis (GC 2691): >128 µg/mL
  MIC Enterococcus faecalis (GC 3059): >128 µg/mL
  MIC Enterococcus faecalis (GC 4552): >128 µg/mL
  MIC Enterococcus faecalis (GC 4553): >128 µg/mL
  MIC Enterococcus faecalis (GC 4554): >128 µg/mL
  MIC Enterococcus faecalis (GC 6189): >128 µg/mL
  MIC Enterococcus faecium (GC 2243): >128 µg/mL
  MIC Enterococcus faecium (GC 4556): >128 µg/mL
  MIC Enterococcus faecium (GC 4557): 128 µg/mL (≈ 83.7 µM)
Enterococcus sp.; strain GC 2242
  MIC Enterococcus faecalis (GC 2242): >128 µg/mL
Enterococcus sp.; strain GC 2691
  MIC Enterococcus faecalis (GC 2691): >128 µg/mL
Enterococcus sp.; strain GC 3059
  MIC Enterococcus faecalis (GC 3059): >128 µg/mL
Streptococcus sp.
  MIC Streptococcus agalactiae (GC 4564): >128 µg/mL
  MIC Streptococcus pneumoniae (ATCC 6301): >128 µg/mL
  MIC Streptococcus pneumoniae (GC 1894): 128 µg/mL (≈ 83.7 µM)
  MIC Streptococcus pneumoniae (GC 4565): >128 µg/mL
  MIC Streptococcus pyogenes (GC 4563): >128 µg/mL
Streptococcus sp.; strain ATCC 6301
  MIC Streptococcus pneumoniae (ATCC 6301): >128 µg/mL
Streptococcus sp.; strain GC 1894
  MIC Streptococcus pneumoniae (GC 1894): 128 µg/mL (≈ 83.7 µM)
Streptococcus sp.; strain GC 4563
  MIC Streptococcus pyogenes (GC 4563): >128 µg/mL
Streptococcus sp.; strain GC 4564
  MIC Streptococcus agalactiae (GC 4564): >128 µg/mL
Streptococcus sp.; strain GC 4565
  MIC Streptococcus pneumoniae (GC 4565): >128 µg/mL
Staphylococcus sp.
  MIC Coagulase Negative Staphylococcus (GC 4547): >128 µg/mL
  MIC Coagulase Negative Staphylococcus (GC 4548): >128 µg/mL
  MIC Coagulase Negative Staphylococcus (GC 4549): >128 µg/mL
  MIC Coagulase Negative Staphylococcus (GC 4551): >128 µg/mL
  MIC Staphylococcus aureus-SMITH (GC 4543): >128 µg/mL
  MIC Staphylococcus haemolyticus (GC 4546): >128 µg/mL
  MIC Staphylococcus aureus (ATCC 29213): >128 µg/mL
  MIC Staphylococcus aureus (GC 1131): >128 µg/mL
  MIC Staphylococcus aureus (GC 3051): >128 µg/mL
  MIC Staphylococcus aureus (GC 3053): >128 µg/mL
  MIC Staphylococcus aureus (GC 4541): >128 µg/mL
  MIC Staphylococcus aureus (GC 4542): >128 µg/mL
  MIC Staphylococcus aureus (GC 4544): >128 µg/mL
  MIC Staphylococcus aureus (GC 4545): >128 µg/mL
Staphylococcus sp.; strain GC 4543
  MIC Staphylococcus aureus-SMITH (GC 4543): >128 µg/mL
Staphylococcus sp.; strain GC 4546
  MIC Staphylococcus haemolyticus (GC 4546): >128 µg/mL
Staphylococcus sp.; strain GC 4547
  MIC Coagulase Negative Staphylococcus (GC 4547): >128 µg/mL
Staphylococcus sp.; strain GC 4548
  MIC Coagulase Negative Staphylococcus (GC 4548): >128 µg/mL
Staphylococcus sp.; strain GC 4549
  MIC Coagulase Negative Staphylococcus (GC 4549): >128 µg/mL
Staphylococcus sp.; strain GC 4551
  MIC Coagulase Negative Staphylococcus (GC 4551): >128 µg/mL
Escherichia coli
  MIC Escherichia coli (ATCC 25922): >128 µg/mL
  MIC Escherichia coli (GC 4559): >128 µg/mL
  MIC Escherichia coli (GC 4560): >128 µg/mL

## CC(c1ccccc1)C1NC(=O)CNC(=O)C(CO)NC(=O)C(C(O)C2CN(c3ncccn3)C(=N)N2C2OC(CO)C(O)C(O)C2O)NC(=O)C(C(O)C2CNC(=Nc3ncccn3)N2)NC(=O)C(Cc2ccc(OC3OC(CO)C(OC4OC(CO)C(O)C(O)C4O)C(O)C3O)cc2)NC1=O (stereo not drawn) [Example 92, Cyclo[glycyl-β-methylphenylalanyl-O-(4-O-hexolpyranosylhexopyranosyl)tyrosyl-3-[2-(pyrimidin-2-ylimino)imidazolidin-4-yl]seryl-3-[3-hexopyranosyl-2-imino-1-(pyrimidin-2-yl)imidazolidin-4-yl]serylseryl]]
Enterococcus sp.; Enterococcus avium (GC 4558)
  MIC Enterococcus avium (GC 4558): 128 µg/mL (≈ 88.2 µM)
Enterococcus sp.; [1]
  MIC Enterococcus faecalis (ATCC 29212): >128 µg/mL
Enterococcus sp.; [2]
  MIC Enterococcus faecalis (GC 4552): >128 µg/mL
Enterococcus sp.; [3]
  MIC Enterococcus faecalis (GC 4553): 128 µg/mL (≈ 88.2 µM)
Enterococcus sp.; [4]
  MIC Enterococcus faecalis (GC 4554): >128 µg/mL
Enterococcus sp.; [5]
  MIC Enterococcus faecalis (GC 6189): >128 µg/mL
Enterococcus sp.; Enterococcus faecium (GC 2243)
  MIC Enterococcus faecium (GC 2243): >128 µg/mL
Enterococcus sp.; Enterococcus faecium (GC 4556)
  MIC Enterococcus faecium (GC 4556): >128 µg/mL
Enterococcus sp.; Enterococcus faecium (GC 4557)
  MIC Enterococcus faecium (GC 4557): 128 µg/mL (≈ 88.2 µM)
Enterococcus sp.
  MIC Enterococcus avium (GC 4558): 128 µg/mL (≈ 88.2 µM)
  MIC Enterococcus faecalis (ATCC 29212): >128 µg/mL
  MIC Enterococcus faecalis (GC 2242): >128 µg/mL
  MIC Enterococcus faecalis (GC 2691): >128 µg/mL
  MIC Enterococcus faecalis (GC 3059): >128 µg/mL
  MIC Enterococcus faecalis (GC 4552): >128 µg/mL
  MIC Enterococcus faecalis (GC 4553): 128 µg/mL (≈ 88.2 µM)
  MIC Enterococcus faecalis (GC 4554): >128 µg/mL
  MIC Enterococcus faecalis (GC 6189): >128 µg/mL
  MIC Enterococcus faecium (GC 2243): >128 µg/mL
  MIC Enterococcus faecium (GC 4556): >128 µg/mL
  MIC Enterococcus faecium (GC 4557): 128 µg/mL (≈ 88.2 µM)
Enterococcus sp.; strain GC 2242
  MIC Enterococcus faecalis (GC 2242): >128 µg/mL
Enterococcus sp.; strain GC 2691
  MIC Enterococcus faecalis (GC 2691): >128 µg/mL
Enterococcus sp.; strain GC 3059
  MIC Enterococcus faecalis (GC 3059): >128 µg/mL
Streptococcus sp.
  MIC Streptococcus agalactiae (GC 4564): >128 µg/mL
  MIC Streptococcus pneumoniae (ATCC 6301): 128 µg/mL (≈ 88.2 µM)
  MIC Streptococcus pneumoniae (GC 1894): 128 µg/mL (≈ 88.2 µM)
  MIC Streptococcus pneumoniae (GC 4565): 128 µg/mL (≈ 88.2 µM)
  MIC Streptococcus pyogenes (GC 4563): >128 µg/mL
Streptococcus sp.; strain ATCC 6301
  MIC Streptococcus pneumoniae (ATCC 6301): 128 µg/mL (≈ 88.2 µM)
Streptococcus sp.; strain GC 1894
  MIC Streptococcus pneumoniae (GC 1894): 128 µg/mL (≈ 88.2 µM)
Streptococcus sp.; strain GC 4563
  MIC Streptococcus pyogenes (GC 4563): >128 µg/mL
Streptococcus sp.; strain GC 4564
  MIC Streptococcus agalactiae (GC 4564): >128 µg/mL
Streptococcus sp.; strain GC 4565
  MIC Streptococcus pneumoniae (GC 4565): 128 µg/mL (≈ 88.2 µM)
Staphylococcus sp.
  MIC Coagulase Negative Staphylococcus (GC 4547): >128 µg/mL
  MIC Coagulase Negative Staphylococcus (GC 4548): >128 µg/mL
  MIC Coagulase Negative Staphylococcus (GC 4549): >128 µg/mL
  MIC Coagulase Negative Staphylococcus (GC 4551): >128 µg/mL
  MIC Staphylococcus aureus-SMITH (GC 4543): >128 µg/mL
  MIC Staphylococcus haemolyticus (GC 4546): >128 µg/mL
  MIC Staphylococcus aureus (ATCC 29213): >128 µg/mL
  MIC Staphylococcus aureus (GC 1131): >128 µg/mL
  MIC Staphylococcus aureus (GC 3051): >128 µg/mL
  MIC Staphylococcus aureus (GC 3053): >128 µg/mL
  MIC Staphylococcus aureus (GC 4541): >128 µg/mL
  MIC Staphylococcus aureus (GC 4542): >128 µg/mL
  MIC Staphylococcus aureus (GC 4544): >128 µg/mL
  MIC Staphylococcus aureus (GC 4545): >128 µg/mL
Staphylococcus sp.; strain GC 4543
  MIC Staphylococcus aureus-SMITH (GC 4543): >128 µg/mL
Staphylococcus sp.; strain GC 4546
  MIC Staphylococcus haemolyticus (GC 4546): >128 µg/mL
Staphylococcus sp.; strain GC 4547
  MIC Coagulase Negative Staphylococcus (GC 4547): >128 µg/mL
Staphylococcus sp.; strain GC 4548
  MIC Coagulase Negative Staphylococcus (GC 4548): >128 µg/mL
Staphylococcus sp.; strain GC 4549
  MIC Coagulase Negative Staphylococcus (GC 4549): >128 µg/mL
Staphylococcus sp.; strain GC 4551
  MIC Coagulase Negative Staphylococcus (GC 4551): >128 µg/mL
Escherichia coli
  MIC Escherichia coli (ATCC 25922): >128 µg/mL
  MIC Escherichia coli (GC 4559): >128 µg/mL
  MIC Escherichia coli (GC 4560): >128 µg/mL
